The results in this text go back to patent US11981658B2, “Substituted aminopyridine compounds as EGFR inhibitors” (YUHAN CORPORATION, priority 2021, dated 2024).

Where two headings read alike, the source gives them in different places. Bounds are passed on as bounds.

Experiment [1] concerns the target EGFR wildtype (WT) (Homo sapiens, UniProt P00533). Kind of experiment: Biochemical EGFR kinase inhibition assay (Lance Ultra TR-FRET), wildtype. In outline:
(§1)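 Enzyme reactions lasted 1 hour at room temperature with test compounds between 0.003 and 10 μM, followed by 10 mM EDTA quench.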

Experiment [2] has as its target EGFR L858R/T790M/C797S (Homo sapiens, UniProt P00533, C797S/L858R/T790M). Kind of experiment: Biochemical EGFR kinase inhibition assay (Lance Ultra TR-FRET), triple mutant L858R/T790M/C797S. The method, boiled down:
as §1

Experiment [3] addresses EGFR L858R/C797S (Homo sapiens, UniProt P00533, C797S/L858R). Kind of experiment: Biochemical EGFR kinase inhibition assay (Lance Ultra TR-FRET), double mutant L858R/C797S. The method, boiled down:
as §1
A general note: TR-FRET usually uses a lanthanide donor and a delayed reading to cut background.

For experiment [4], the target named is EGFR Del19/T790M/C797S (Homo sapiens, UniProt P00533, C797S/DEL746-750/T790M). Kind of experiment: Biochemical EGFR kinase inhibition assay (Lance Ultra TR-FRET), triple mutant del19/T790M/C797S. The method, boiled down: as §1
Experiment [5] concerns the target EGFR Del19/C797S (Homo sapiens, UniProt P00533, C797S/DEL746-750). Kind of experiment: Biochemical EGFR kinase inhibition assay (Lance Ultra TR-FRET), double mutant del19/C797S. The method, boiled down: as §1
Where [6] appears, read: IC50 L858R/T790M/C797S (nM), 100 μM ATP.
[7] abbreviates: IC50 L858R/C797S (nM), 100 μM ATP.
[8] abbreviates: IC50 Del19/T790M/C797S (nM), 100 μM ATP.
Setting [9] is: IC50 Del19/C797S (nM), 100 μM ATP.
Where [10] appears, read: ATP at Km, read-out: IC50 WT (nM), Km ATP.
[11] abbreviates: ATP at Km, read-out: IC50 L858R/T790M/C797S (nM), Km ATP.
Setting [12] is: ATP at Km, read-out: IC50 L858R/C797S (nM), Km ATP.
Where [13] appears, read: ATP at Km, read-out: IC50 Del19/T790M/C797S (nM), Km ATP.
The mark [14] stands for this setting: ATP at Km, read-out: IC50 Del19/C797S (nM), Km ATP.
[15] abbreviates: Km ATP, read-out: IC50 WT (nM) Km ATP.
The mark [16] stands for this setting: Km ATP, read-out: IC50 L858R/T790M/C797S (nM) Km ATP.
The mark [17] stands for this setting: Km ATP, read-out: IC50 L858R/C797S (nM) Km ATP.
[18] abbreviates: Km ATP, read-out: IC50 Del19/T790M/C797S (nM) Km ATP.
Where [19] appears, read: Km ATP, read-out: IC50 Del19/C797S (nM) Km ATP.

Sequence of EGFR L858R/T790M/C797S (P00533 25-1210 T790M/C797S/L858R): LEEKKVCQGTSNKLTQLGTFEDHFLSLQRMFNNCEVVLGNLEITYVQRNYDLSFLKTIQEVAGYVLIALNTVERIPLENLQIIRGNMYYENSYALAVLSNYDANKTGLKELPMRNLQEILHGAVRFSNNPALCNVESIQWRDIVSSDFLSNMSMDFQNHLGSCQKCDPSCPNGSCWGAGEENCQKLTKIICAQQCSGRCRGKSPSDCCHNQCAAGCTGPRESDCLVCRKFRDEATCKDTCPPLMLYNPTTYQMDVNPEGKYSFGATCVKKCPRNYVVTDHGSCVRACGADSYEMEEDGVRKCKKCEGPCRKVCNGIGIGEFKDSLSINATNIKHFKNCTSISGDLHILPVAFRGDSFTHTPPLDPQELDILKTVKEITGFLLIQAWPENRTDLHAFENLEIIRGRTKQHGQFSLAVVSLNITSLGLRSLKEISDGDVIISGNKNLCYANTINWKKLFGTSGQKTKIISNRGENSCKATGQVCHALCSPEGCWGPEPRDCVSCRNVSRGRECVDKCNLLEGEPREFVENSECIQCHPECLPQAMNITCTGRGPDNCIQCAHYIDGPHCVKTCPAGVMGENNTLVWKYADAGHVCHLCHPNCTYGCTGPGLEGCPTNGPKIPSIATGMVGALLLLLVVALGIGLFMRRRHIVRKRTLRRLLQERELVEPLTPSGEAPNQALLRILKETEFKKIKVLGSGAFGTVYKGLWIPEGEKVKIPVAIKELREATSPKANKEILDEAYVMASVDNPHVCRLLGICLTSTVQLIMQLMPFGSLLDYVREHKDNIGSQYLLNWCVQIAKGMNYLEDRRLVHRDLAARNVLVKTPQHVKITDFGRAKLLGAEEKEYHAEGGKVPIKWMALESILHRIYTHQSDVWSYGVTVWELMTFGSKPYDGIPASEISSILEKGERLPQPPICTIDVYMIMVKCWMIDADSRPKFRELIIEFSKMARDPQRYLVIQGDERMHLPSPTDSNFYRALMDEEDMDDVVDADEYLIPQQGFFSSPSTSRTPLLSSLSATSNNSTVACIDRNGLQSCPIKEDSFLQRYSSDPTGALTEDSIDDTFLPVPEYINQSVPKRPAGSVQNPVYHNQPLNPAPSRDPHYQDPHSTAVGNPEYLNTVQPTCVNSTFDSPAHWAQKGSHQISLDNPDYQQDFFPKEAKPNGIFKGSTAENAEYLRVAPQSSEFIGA
Sequence of EGFR Del19/T790M/C797S (P00533 with tags, fused parts or gaps DEL746-750/T790M/C797S): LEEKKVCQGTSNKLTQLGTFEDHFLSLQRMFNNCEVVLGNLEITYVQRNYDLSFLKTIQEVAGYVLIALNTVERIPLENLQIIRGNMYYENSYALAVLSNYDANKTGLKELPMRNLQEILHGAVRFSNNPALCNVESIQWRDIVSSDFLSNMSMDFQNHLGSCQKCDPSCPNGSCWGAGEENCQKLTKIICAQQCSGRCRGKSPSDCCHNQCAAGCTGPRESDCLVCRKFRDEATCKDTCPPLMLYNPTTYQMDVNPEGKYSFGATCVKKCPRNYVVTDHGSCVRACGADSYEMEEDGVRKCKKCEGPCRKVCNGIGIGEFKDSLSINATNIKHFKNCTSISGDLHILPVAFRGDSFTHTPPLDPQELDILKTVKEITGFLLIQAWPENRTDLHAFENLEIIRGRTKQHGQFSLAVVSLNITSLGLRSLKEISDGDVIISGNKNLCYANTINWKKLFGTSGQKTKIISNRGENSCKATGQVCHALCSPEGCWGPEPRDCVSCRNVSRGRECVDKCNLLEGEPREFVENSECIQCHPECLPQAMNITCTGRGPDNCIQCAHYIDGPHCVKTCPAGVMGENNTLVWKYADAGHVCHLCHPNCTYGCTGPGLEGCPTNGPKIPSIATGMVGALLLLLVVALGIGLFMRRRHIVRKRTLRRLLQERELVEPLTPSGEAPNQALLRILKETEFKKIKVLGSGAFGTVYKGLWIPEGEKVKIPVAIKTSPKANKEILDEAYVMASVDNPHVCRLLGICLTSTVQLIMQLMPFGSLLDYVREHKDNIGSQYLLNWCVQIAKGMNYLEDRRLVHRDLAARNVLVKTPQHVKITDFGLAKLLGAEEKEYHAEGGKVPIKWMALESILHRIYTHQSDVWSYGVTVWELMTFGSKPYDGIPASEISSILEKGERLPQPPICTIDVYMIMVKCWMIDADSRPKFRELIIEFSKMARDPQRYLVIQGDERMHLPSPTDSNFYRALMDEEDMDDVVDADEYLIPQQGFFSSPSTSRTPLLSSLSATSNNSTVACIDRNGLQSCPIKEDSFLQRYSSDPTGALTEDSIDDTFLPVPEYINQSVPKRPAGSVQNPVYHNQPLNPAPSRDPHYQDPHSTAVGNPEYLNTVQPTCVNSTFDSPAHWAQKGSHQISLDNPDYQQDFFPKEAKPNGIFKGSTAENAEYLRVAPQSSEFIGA
Sequence of EGFR Del19/C797S (P00533 with tags, fused parts or gaps DEL746-750/C797S): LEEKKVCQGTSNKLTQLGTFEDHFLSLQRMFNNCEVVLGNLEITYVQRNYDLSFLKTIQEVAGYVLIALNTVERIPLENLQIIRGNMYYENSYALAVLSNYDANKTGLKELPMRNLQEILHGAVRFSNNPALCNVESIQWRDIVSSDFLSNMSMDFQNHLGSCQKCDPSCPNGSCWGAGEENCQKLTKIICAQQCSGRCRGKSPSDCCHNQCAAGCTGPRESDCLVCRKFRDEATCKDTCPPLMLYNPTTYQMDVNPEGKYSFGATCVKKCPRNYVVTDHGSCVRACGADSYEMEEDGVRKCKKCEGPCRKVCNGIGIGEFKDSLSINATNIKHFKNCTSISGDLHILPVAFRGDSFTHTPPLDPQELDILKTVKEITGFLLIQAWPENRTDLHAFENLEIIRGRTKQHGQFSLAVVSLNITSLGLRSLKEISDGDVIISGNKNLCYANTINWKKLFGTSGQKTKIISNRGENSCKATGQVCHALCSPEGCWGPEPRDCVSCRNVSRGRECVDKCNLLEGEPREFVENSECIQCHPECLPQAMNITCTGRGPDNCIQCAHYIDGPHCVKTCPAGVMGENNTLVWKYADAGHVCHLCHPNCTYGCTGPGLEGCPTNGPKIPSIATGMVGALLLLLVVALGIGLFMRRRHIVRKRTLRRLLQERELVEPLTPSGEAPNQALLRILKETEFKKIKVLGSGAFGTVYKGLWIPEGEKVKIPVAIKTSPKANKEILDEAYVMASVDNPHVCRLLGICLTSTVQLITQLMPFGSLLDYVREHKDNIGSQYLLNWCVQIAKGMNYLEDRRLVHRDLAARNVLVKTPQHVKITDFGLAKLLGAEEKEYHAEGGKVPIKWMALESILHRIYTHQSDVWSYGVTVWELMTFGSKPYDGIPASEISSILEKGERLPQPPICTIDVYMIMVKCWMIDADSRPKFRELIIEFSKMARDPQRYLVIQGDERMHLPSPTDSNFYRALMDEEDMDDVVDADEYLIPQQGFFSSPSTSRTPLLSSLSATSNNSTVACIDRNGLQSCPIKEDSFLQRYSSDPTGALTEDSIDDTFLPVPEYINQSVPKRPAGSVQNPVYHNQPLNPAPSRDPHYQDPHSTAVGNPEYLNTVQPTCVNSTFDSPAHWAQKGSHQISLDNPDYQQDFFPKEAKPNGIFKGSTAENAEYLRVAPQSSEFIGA
Sequence of EGFR wildtype (WT) (P00533 25-1210): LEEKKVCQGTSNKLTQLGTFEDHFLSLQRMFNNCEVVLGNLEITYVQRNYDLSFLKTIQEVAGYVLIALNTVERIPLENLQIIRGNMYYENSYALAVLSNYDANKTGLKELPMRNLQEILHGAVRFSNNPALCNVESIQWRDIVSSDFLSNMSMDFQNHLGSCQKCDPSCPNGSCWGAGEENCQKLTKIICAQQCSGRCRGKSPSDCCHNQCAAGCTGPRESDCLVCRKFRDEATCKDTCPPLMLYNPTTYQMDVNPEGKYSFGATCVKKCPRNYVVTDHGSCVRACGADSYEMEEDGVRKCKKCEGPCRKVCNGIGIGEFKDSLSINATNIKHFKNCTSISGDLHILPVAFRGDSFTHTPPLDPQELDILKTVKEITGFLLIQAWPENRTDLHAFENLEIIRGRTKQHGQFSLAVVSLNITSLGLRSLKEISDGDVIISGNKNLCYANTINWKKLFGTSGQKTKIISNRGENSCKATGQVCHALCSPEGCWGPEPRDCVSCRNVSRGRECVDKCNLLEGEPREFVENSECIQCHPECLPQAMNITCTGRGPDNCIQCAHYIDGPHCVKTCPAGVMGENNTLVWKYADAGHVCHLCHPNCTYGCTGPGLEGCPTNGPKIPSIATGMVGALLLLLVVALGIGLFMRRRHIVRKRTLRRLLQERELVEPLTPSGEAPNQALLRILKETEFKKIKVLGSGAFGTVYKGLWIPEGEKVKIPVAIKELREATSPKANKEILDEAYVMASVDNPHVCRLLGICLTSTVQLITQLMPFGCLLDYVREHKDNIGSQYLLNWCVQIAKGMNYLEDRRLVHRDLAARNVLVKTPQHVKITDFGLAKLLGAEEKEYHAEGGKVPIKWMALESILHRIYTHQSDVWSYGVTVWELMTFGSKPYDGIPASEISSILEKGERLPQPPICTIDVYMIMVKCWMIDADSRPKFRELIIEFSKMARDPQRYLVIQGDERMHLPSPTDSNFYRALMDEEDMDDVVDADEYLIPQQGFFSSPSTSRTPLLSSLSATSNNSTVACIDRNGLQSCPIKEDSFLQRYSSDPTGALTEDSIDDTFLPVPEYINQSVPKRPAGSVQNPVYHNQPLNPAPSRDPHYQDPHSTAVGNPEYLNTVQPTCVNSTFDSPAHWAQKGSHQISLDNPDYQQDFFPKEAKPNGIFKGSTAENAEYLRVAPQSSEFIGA

`Cn1cc(C#Cc2cnc(Nc3ccnc(-c4cnn(S(=O)(=O)C5CC5)c4)n3)cc2N2CCC(O)C(C)(C)C2)cn1` (stereo not drawn) [Example 69, 1-(2-((2-(1-(Cyclopropylsulfonyl)-1H-pyrazol-4-yl)pyrimidin-4-yl)amino)-5-((1-methyl-1H-pyrazol-4-yl)ethynyl)pyridin-4-yl)-3,3-dimethylpiperidin-4-ol]: the IC50 was greater than 10000 nM in experiment [1] (IC50 WT (nM), 100 μM ATP); 13.2 nM in experiment [2] (setting [6]); 179 nM in experiment [3] (setting [7]); 1.7 nM in experiment [4] (setting [8]); 43.8 nM in experiment [5] (setting [9]).

As to `CCc1cnc(C#Cc2cnc(Nc3ccnc(-c4cnn(S(=O)(=O)C5CC5)c4)n3)cc2N[C@@H]2CCC[C@H](O)C2)s1` [Example 168, (1S,3R)-3-((2-((2-(1-(Cyclopropylsulfonyl)-1H-pyrazol-4-yl)pyrimidin-4-yl)amino)-5-((5-ethylthiazol-2-yl)ethynyl)pyridin-4-yl)amino)cyclohexan-1-ol], the IC50 in experiment [1] (setting [10]) was 6250 nM; in experiment [1] (IC50 WT (nM), 100 μM ATP) it was greater than 10000 nM; in experiment [2] (setting [11]), 9.1 nM; in experiment [2] (setting [6]), 71.2 nM; in experiment [3] (setting [12]), 784 nM; in experiment [3] (setting [7]) it was 8370 nM. Moreover, the IC50 turned out to be 11 nM in experiment [4] (setting [13]), 11.8 nM in experiment [4] (setting [8]), 67.9 nM in experiment [5] (setting [14]) and 391 nM in experiment [5] (setting [9]).

Take `CC1(CO)CCN(c2cc(Nc3ccnc(-c4cnn(S(=O)(=O)C5CC5)c4)n3)ncc2C#CC2CCCC2)CC1` [Example 251, (1-(5-(Cyclopentylethynyl)-2-((2-(1-(cyclopropylsulfonyl)-1H-pyrazol-4-yl)pyrimidin-4-yl)amino)pyridin-4-yl)-4-methylpiperidin-4-yl)methanol]: the IC50 in experiment [1] (setting [10]) is 72.6 nM; in experiment [1] (IC50 WT (nM), 100 μM ATP) it was greater than 10000 nM; in experiment [2] (setting [11]) it was 1.4 nM; in experiment [2] (setting [6]), 5.3 nM; in experiment [3] (setting [12]), 41.5 nM; in experiment [3] (setting [7]) it was 397 nM. For the same molecule, the IC50 in experiment [4] (setting [13]) turned out to be 3 nM; in experiment [4] (setting [8]) it was 3.3 nM; in experiment [5] (setting [14]) it was 8.7 nM; in experiment [5] (setting [9]), 15.9 nM.

Take `CN(C)C(=O)Cn1cc(C#Cc2cnc(Nc3ccnc(-c4cnn(S(=O)(=O)C5CC5)c4)n3)cc2N[C@H]2CC[C@@](C)(O)CC2)cn1` [Example 221, 2-(4-((6-((2-(1-(Cyclopropylsulfonyl)-1H-pyrazol-4-yl)pyrimidin-4-yl)amino)-4-(((1s,4s)-4-hydroxy-4-methylcyclohexyl)amino)pyridin-3-yl)ethynyl)-1H-pyrazol-1-yl)-N,N-dimethylacetamide]: the IC50 in experiment [1] (setting [15]) was 65 nM; in experiment [1] (read-out: IC50 WT (nM), 100 μM ATP) it was greater than 10000 nM; in experiment [2] (setting [16]), 0.8 nM; in experiment [2] (read-out: IC50 L858R/T790M/C797S (nM), 100 μM ATP) it was 2.2 nM; in experiment [3] (setting [17]), 3.8 nM; in experiment [3] (read-out: IC50 L858R/C797S (nM), 100 μM ATP), 33 nM. Besides, the IC50 in experiment [4] (setting [18]) was 2.9 nM; in experiment [4] (read-out: IC50 Del19/T790M/C797S (nM), 100 μM ATP), 2 nM; in experiment [5] (setting [19]) it was 6.3 nM; in experiment [5] (read-out: IC50 Del19/C797S (nM), 100 μM ATP), 8.4 nM.

As for `O=S(=O)(C1CC1)n1cc(-c2nccc(Nc3cc(NC4CCC(O)CC4)c(C#Cc4cnn(C5CC5(F)F)c4)cn3)n2)cn1` (stereo not drawn) [Example 85, (1s,4s)-4-((2-((2-(1-(Cyclopropylsulfonyl)-1H-pyrazol-4-yl)pyrimidin-4-yl)amino)-5-((1-(2,2-difluorocyclopropyl)-1H-pyrazol-4-yl)ethynyl)pyridin-4-yl)amino)cyclohexan-1-ol], the IC50 in experiment [1] (IC50 WT (nM), 100 μM ATP) is greater than 10000 nM; in experiment [1] (setting [15]), 114 nM; in experiment [2] (setting [6]), 3.5 nM; in experiment [2] (setting [16]) it was 1 nM; in experiment [3] (setting [7]), 50.8 nM; in experiment [3] (setting [17]) it was 3.1 nM. Moreover, the IC50 in experiment [4] (setting [8]) stood at 1.8 nM; in experiment [4] (setting [18]), 1.8 nM; in experiment [5] (setting [9]) it was 7 nM; in experiment [5] (setting [19]), 3.5 nM.
